The record followed here is PubChem BioAssay AID1996.

In brackets after ≈: the same amount, converted by molar mass.

For the data set the following is noted: buffer; pH 7.4; 200.0 µM.
Molecule `O=C(/C=C/c1ccc(O)c(O)c1)NC(=O)c1ccccc1O` displayed a kinetic solubility greater than 44.9 µg/mL.
`CCOC(=O)C1CCN(C(=O)c2cccnc2Oc2ccccc2)CC1` displayed a solubility (kinetic) of 50.9 µg/mL (≈ 144 µM).
`CN1C(=O)CSC1=Nc1cccc(Cl)c1` had a kinetic solubility of 34.2 µg/mL (≈ 142 µM).
Molecule `O=C(O)c1cccc(S(=O)(=O)Nc2cccc3ccccc23)c1` registered a solubility (kinetic) greater than 49.1 µg/mL.
As to `CCC(=O)c1c[nH]c(C(=O)NCc2cccnc2)c1`, the solubility (kinetic) was greater than 38.6 µg/mL.
Consider `O=c1c2ccccc2nc2n1CCS2(=O)=O`, for which the kinetic solubility amounted to 34.6 µg/mL (≈ 146 µM).
As to `Cc1csc(NC(=O)c2ccc(N3CCCC3=O)cc2)n1`, the solubility (kinetic) amounted to 4.7 µg/mL (≈ 15.6 µM).
The same measure for `COc1ccc(CN2CCNCC2)c(OC)c1OC.Cl`: 40.3 µg/mL; for `O=C(CSCc1ccc(Cl)cc1)NCCSCc1ccco1`: 36.3 µg/mL (≈ 102 µM); for `Cc1nc2nc(N)nc(OCc3ccccc3)c2nc1C`: 41.6 µg/mL (≈ 148 µM).
In the case of `O=C(Nc1ccc(F)cc1)c1ccc(S(=O)(=O)N2CCOCC2)o1`, the solubility (kinetic) was greater than 53.2 µg/mL.
The molecule `CCc1noc(C)c1C(=O)Nc1ccccc1N1CCOCC1` displayed a kinetic solubility greater than 47.3 µg/mL.
Take `CCC1CCc2sc(C(=O)NCC3CCCO3)cc2C1` (stereo unspecified): the kinetic solubility amounted to 42.3 µg/mL (≈ 144 µM).
`O=C(CNS(=O)(=O)c1ccc(F)cc1)N1CCOCC1` yielded a solubility (kinetic) greater than 45.3 µg/mL.
For the molecule `Cc1cc(C)c(C#N)c(SCc2ccc(C(=O)O)cc2)n1`, the solubility (kinetic) is greater than 44.8 µg/mL.
On to `O=C(NCc1cccc(C(F)(F)F)c1)N1CCN(C(=O)c2ccccc2)CC1`, for which the kinetic solubility is greater than 58.7 µg/mL.
`NC(=O)c1cc[n+](Cc2ccc([N+](=O)[O-])cc2)cc1.[Br-]` showed a solubility (kinetic) greater than 50.7 µg/mL.
The same measure for `Cc1ccc2c(C)c(C(=O)NCCc3ccco3)oc2c1C`: 2.8 µg/mL (≈ 9.42 µM); for `O=C(Nc1cccc(S(=O)(=O)Nc2ccc(SC(F)F)cc2)c1)C1CCC1`: 34.8 µg/mL (≈ 84.4 µM); for `COC(=O)[C@H](CCSC)NC(=O)Nc1cc(OC)cc(OC)c1`: greater than 51.4 µg/mL.
In turn, `Cc1ccc(C(=O)NCC(=O)Nc2ncccc2C)s1` yielded a solubility (kinetic) greater than 43.4 µg/mL.

In general, kinetic solubility refers to the concentration staying in solution when a stock, usually in DMSO, is diluted into the medium.
